{"source": "patent US20240327787A1", "about": "“CULTURE MEDIUM, COATING MATRIX AND METHOD FOR EXPANDING MIDBRAIN DOPAMINERGIC PROGENITOR CELLS” (NUWACELL BIOTECHNOLOGIES CO., LTD., priority 2022, published 2024)", "system": "imDAPs", "experiment": "Flow cytometry analysis of FOXA2 expression in expanded imDAPs", "type": "cell-based, human", "settings": "VTN-coated", "method": "1. Individualize and collect cells by either Accutase or TrypLE treatment.\n2. Wash cells with 1 ml PBS and pellet cells at 250×g for 15 sec.\n3. Remove supernatant, add ˜200 μl of 4% PFA, mix and fix for 10 min at RT.\n4. Pellet cells at 350×g for 5 min.\n5. Wash cells by 1 ml of FACS buffer and pellet cells at 350×g for 5 min.\n6. Remove supernatant, add 200 μl/tube of FACS buffer/0.1% TritonX, mix for 10 min at RT.\n7. Wash cells by 1 ml of FACS buffer and pellet cells at 350×g for 5 min.\n8. Remove supernatant, add 200 μl/tube of primary antibody diluted in FACS buffer, mix gently, and incubate for 30 min at RT.\n9. Wash cells by 1 ml of FACS buffer and pellet cells at 350×g for 5 min.\n10. Remove supernatant, and add 200 μl of secondary antibody diluted in FACS buffer, mix gently, and incubate for 30 min at RT.\n11. Wash cells by 1 ml of FACS buffer and pellet cells at 300×g for 5 min.\n12. Remove supernatant, add 200 μl of FACS buffer, and run samples on the flow cytometry.\nimDAPs were produced according to the method described in CN201910169525.0. The imDAPs (P0) were seeded on VTN-coated plates (1 μg/cm^2) at a low density of 1×10^4 cells/cm^2, and cultured in the expansion medium (50% DMEM/F12, 50% Neurobasal™ medium, 1% (v/v) Glutamax, 2% (v/v) B27 (50×), 0.2 μM LDN193189, 3 μM CHIR99021, 100 ng/mL FGF8b) with either 5 μM Blebbistatin or 10 μM Y27632. Medium was replaced every 3rd day. At Day 6, cells were collected for FACS analysis.\nimDAPs were produced according to the method described in CN201910169525.0. The imDAPs (P0) were seeded on DLL4-coated (1 μg/cm^2), VTN-coated (1 μg/cm^2) and DLL4/VTN-coated (1 μg/cm^2 for each) plates at a low density of 1×10^4 cells/cm^2 respectively, and cultured in the expansion medium in the absence or presence of 5 μM SB431542. Medium was replaced every 3rd day until reaching 100% confluence (6 days) for cell collection. The typical cell morphology on day 4 was recorded (FIG. 4A). The cell number of each group was counted by Vi-cell cytometer (FIG. 4B). The cells of each group were stained with Foxa2-PE antibody (BD, #561589), the percentage of Foxa2+ imDAPs were analyzed by flow cytometry (FIG. 4C). The expansion medium used in this example contained the following components: 50% DMEM/F12, 50% Neurobasal™ medium, 1% (v/v) Glutamax, 1% (v/v) B27, 50 μg/ml ascorbic acid, 0.2 μM LDN193189, 100 ng/ml FGF8b, 3 μM CHIR99021 and 10 µM Y27632.\nimDAPs were produced according to the method described in CN201910169525.0. The imDAPs (P0) were seeded on DLL4/VTN-coated (1 μg/cm^2 for each) plates at a low density of 1×10^4 cells/cm^2, and cultured in the expansion medium (EM1, EM2, EM3, EM4). Medium was replaced every 3rd day until reaching 100% confluence (6 days) for cell collection. EM1 used in Example 9 contained the following components: 50% DMEM/F12, 50% Neurobasal™ medium, 1% (v/v) Glutamax, 1% (v/v) B27 (50×), 50 μg/ml ascorbic acid, 3 μM CHIR99021, 5 μM SB431542 and 10 μM Y27632. EM2 used in Example 9 contained the following components: 50% DMEM/F12, 50% Neurobasal™ medium, 1% (v/v) Glutamax, 1% (v/v) B27 (50×), 50 μg/ml ascorbic acid, 0.2 μM LDN193189, 3 μM CHIR99021, 5 μM SB431542 and 10 μM Y27632. EM3 used in Example 9 contained the following components: 50% DMEM/F12, 50% Neurobasal™ medium, 1% (v/v) Glutamax, 1% (v/v) B27 (50×), 50 μg/mL ascorbic acid, 0.2 μM LDN193189, 100 ng/ml FGF8b, 3 μM CHIR99021, 5 μM SB431542 and 10 μM Y27632. […]", "note": "Counter-ions that a name gives are not always drawn."}
{"smiles": "C[C@@H](N)[C@H]1CC[C@H](C(=O)Nc2ccncc2)CC1", "note": "[Y27632, (R)-(+)-trans-4-(1-aminoethyl)-N-(4-pyridyl) cyclohexanecarboxamide dihydrochloride]", "values": [{"measurement": "percentage of Foxa2-expressing cells (FIG. 2)", "setting": "10 μM Y27632 vs 5 μM Blebbistatin in expansion medium, 1×10^4 cells/cm^2, Day 6", "result": "capable of improving the percentage of Foxa2-expressing cells than Blebbistatin"}, {"measurement": "percentage of Foxa2-expressing cells during passages", "setting": "expansion medium with 10 μM Y27632", "result": "still decreased during passages"}]}
